Laboratory results from patent US20040038861A1, “Methods and compositions for normalizing lipid levels in mammalian tissues” (priority 2001, published 2004).

Test system: soleus muscle
Test: Individual free fatty acids by gas chromatography in soleus muscle of rats fed high fat diets
Parameters: species or system rat
Details: 1 hour, GC
From the text: High-fatted rats. Groups of male Wistar rats (n=21/diet) were ad libitum fed high-fat diets containing standard rat chow to which 40% (w/w) of lard, corn oil or olive oil had been added, from the time of weaning (age=21 d) until sacrifice at 50 d. Triacylglycerol from lard contains predominantly saturated fatty acids; that from corn oil […], see Table 4.
Soleus muscle tissue isolation and incuhation.Immersion and incubation media was Krebs-Henseleit buffer (KHB) containing 118.5 mM NaCl, 4.75 mM KCl, 1.18 mM MgSO4.7H2O and KH2PO4, 24.8 mM NaHCO3, 2.54 mM CaCl2 and 10 mM d-glucose. The medium was gassed continuously with 95% O2/5% CO2. […] Soleus muscles of both legs were excised keeping the tissue immersed in KHB; muscles were separated into two equal parts and transferred to the incubation flasks. At the completion of incubation the muscles were snap frozen in liquid nitrogen, and then trimmed of connective tissue and all visible fat. The muscle strips were stored at −80° C. until analysis.
Lipid extraction and chromatographic separation of fatty acids. Total lipids were extracted from muscle strips by a modified version of the method of Bligh and Dyer (Gorski et al., 1988, Mol & Cell Biochem 178:113-118; 1. Bligh et al., 1959, Can J Biochem Physiol 37: 911-917). Muscles were homogenised (Soniprep 150) in 0.4 ml of deionised water. Solvent volumes used herein were varied according to the water content of the muscle (ie muscle weight) as described (Bligh & Dyer, supra). 2 vols of methanol containing 0.005% butylated hydroxy toluene (BHT) and 1 vol chloroform were added to the muscle suspension. Homogenates were vortexed at maximum speed for 2 minutes and centrifuged at 2,500 g for 4 minutes. Supernatants were recovered and pellets re-extracted with 2 vol methanol, 1 vol chloroform and 0.8 vol 0.2 N HCl. Residues were vortexed for 2 min then centrifuged at 3,500 g for 3 min. After centrifugation the combined supernatants were diluted with 2v each of milli Q water and chloroform and the phases separated by centrifugation at 3,500 g for 4 minutes. The lower chloroform phase was recovered, neutralised by dropwise addition of 0.2 N methanolic NH4OH and evaporated down in a stream of N2. The samples were stored at −80° C. until required.
Aminopropyl phase (250 mg) was packed into 16 ml teflon columns with teflon frits placed at the top and bottom of the bonded phase. Columns were placed in a Vac Elut apparatus and washed twice with 2 ml portions of hexane (Prasad et al., 1988, J Chromato 428: 221-228; Kaluzny et al., 1985, J Lipid Res 26: 135-140). The dry lipid samples were taken up in two 0.150 ml portions of chloroform and applied to the column under atmospheric pressure. After adsorption the neutral lipids were eluted with 4 ml of chloroform-2-propanol (2:1, v/v) and the free fatty acids eluted with 4 ml of 2% acetic acid in diethyl ether. The solvent containing the free fatty acids was dried under a stream of N2.
Gas-liquid chromatographic analysis. Dry free fatty acid residues were processed for derivatisation of methyl esters by the boron trifluoride-methanol method (Prasad, supra). 1 ml of boron trifluoride in methanol (BF3) was added to each sample, the sample vials were heated at 70° C. for 5 minutes, shaken vigorously, and baked for a further 10 minutes. Once the samples reached room temperature 0.5 ml milli Q water was added, the sample vials shaken, 0.1 ml heptane was added and the sample shaken again. 0.05 ml of the top heptane layer was removed for GLC analysis. A Model HP5890 Plus Series 2 (Hewlett-Packard) gas chromatograph equipped with a DB-225 column was used to separate the methyl esters of the fatty acids and a Model HP 5890 GC with a Model HP 5973 MS (Hewlett-Packard) GC/MS used to confirm the identity of individual free fatty acids. […]

[1] = rats fed diet high in olive oil

Rat amylin
free fatty acid adrenic C22:4 (rats fed diet high in corn oil): 0.03 ± 0.003 nmol/g wwt | free fatty acid arachidic C20:0 (rats fed diet high in corn oil): 0.04 ± 0.002 nmol/g wwt | free fatty acid arachidonic C20:4 (rats fed diet high in corn oil): 0.04 ± 0.002 nmol/g wwt | free fatty acid cervonic C22:6 (rats fed diet high in corn oil): 0.03 ± 0.002 nmol/g wwt | free fatty acid linoleic C18:2 (rats fed diet high in corn oil): 0.18 ± 0.02 nmol/g wwt | free fatty acid linolenic C18:3 (rats fed diet high in corn oil): 0.16 ± 0.02 nmol/g wwt | free fatty acid margaric C17:0 (rats fed diet high in corn oil): 0.02 ± 0.0009 nmol/g wwt | free fatty acid myristic C14:0 (rats fed diet high in corn oil): 0.04 ± 0.006 nmol/g wwt | free fatty acid oleic C18:1 (rats fed diet high in corn oil): 0.13 ± 0.01 nmol/g wwt | free fatty acid palmitic C16:0 (rats fed diet high in corn oil): 0.12 ± 0.01 nmol/g wwt | free fatty acid palmitoleic (n-7) C16:1 (rats fed diet high in corn oil): 0.01 ± 0.0008 nmol/g wwt | free fatty acid palmitoleic (n-9) C16:1 (rats fed diet high in corn oil): 0.19 ± 0.008 nmol/g wwt | free fatty acid pentadecanoic C15:0 (rats fed diet high in corn oil): 0.05 ± 0.007 nmol/g wwt | free fatty acid stearic C18:0 (rats fed diet high in corn oil): 0.14 ± 0.008 nmol/g wwt | free fatty acid timnodonic C20:5 (rats fed diet high in corn oil): 0.05 ± 0.007 nmol/g wwt | free fatty acid vaccenic C18:1 (rats fed diet high in corn oil): 0.02 ± 0.002 nmol/g wwt | free fatty acid adrenic C22:4 (rats fed diet high in lard): 0.03 ± 0.005 nmol/g wwt | free fatty acid arachidic C20:0 (rats fed diet high in lard): 0.06 ± 0.007 nmol/g wwt | free fatty acid arachidonic C20:4 (rats fed diet high in lard): 0.01 ± 0.0005 nmol/g wwt | free fatty acid cervonic C22:6 (rats fed diet high in lard): 0.02 ± 0.002 nmol/g wwt | free fatty acid linoleic C18:2 (rats fed diet high in lard): 0.29 ± 0.004 nmol/g wwt | free fatty acid margaric C17:0 (rats fed diet high in lard): 0.08 ± 0.01 nmol/g wwt | free fatty acid myristic C14:0 (rats fed diet high in lard): 0.05 ± 0.01 nmol/g wwt | free fatty acid oleic C18:1 (rats fed diet high in lard): 0.2 ± 0.01 nmol/g wwt | free fatty acid palmitic C16:0 (rats fed diet high in lard): 0.24 ± 0.01 nmol/g wwt | free fatty acid palmitoleic (n-7) C16:1 (rats fed diet high in lard): 0.02 ± 0.0009 nmol/g wwt | free fatty acid palmitoleic (n-9) C16:1 (rats fed diet high in lard): 0.02 ± 0.003 nmol/g wwt | free fatty acid pentadecanoic C15:0 (rats fed diet high in lard): 0.12 ± 0.03 nmol/g wwt | free fatty acid stearic C18:0 (rats fed diet high in lard): 0.35 ± 0.04 nmol/g wwt | free fatty acid timnodonic C20:5 (rats fed diet high in lard): 0.02 ± 0.002 nmol/g wwt | free fatty acid vaccenic C18:1 (rats fed diet high in lard): 0.02 ± 0.002 nmol/g wwt | free fatty acid adrenic C22:4 [1]: 0.05 ± 0.008 nmol/g wwt | free fatty acid arachidic C20:0 [1]: 0.04 ± 0.005 nmol/g wwt | free fatty acid arachidonic C20:4 [1]: 0.03 ± 0.007 nmol/g wwt | free fatty acid cervonic C22:6 [1]: 0.08 ± 0.02 nmol/g wwt | free fatty acid linoleic C18:2 [1]: 0.02 ± 0.004 nmol/g wwt | free fatty acid linolenic C18:3 [1]: 0.01 ± 0.002 nmol/g wwt | free fatty acid margaric C17:0 [1]: 0.02 ± 0.003 nmol/g wwt | free fatty acid myristic C14:0 [1]: 0.01 ± 0.001 nmol/g wwt | free fatty acid oleic C18:1 [1]: 0.34 ± 0.04 nmol/g wwt | free fatty acid palmitic C16:0 [1]: 0.18 ± 0.01 nmol/g wwt | free fatty acid palmitoleic (n-7) C16:1 [1]: 0.02 ± 0.001 nmol/g wwt | free fatty acid palmitoleic (n-9) C16:1 [1]: 0.29 ± 0.03 nmol/g wwt | free fatty acid pentadecanoic C15:0 [1]: 0.04 ± 0.005 nmol/g wwt | free fatty acid stearic C18:0 [1]: 0.18 ± 0.02 nmol/g wwt | free fatty acid timnodonic C20:5 [1]: 0.02 ± 0.003 nmol/g wwt | free fatty acid vaccenic C18:1 [1]: 0.13 ± 0.02 nmol/g wwt
